# From patent publication EP0319906A2, “Novel quinoline derivatives, processes for preparation thereof and antibacterial agent containing them” (Dainippon Pharmaceutical Co., Ltd., priority 1987, dated 1989)
# Columns and labels:
# Test in all cases: Antimycoplasma activity, twofold agar dilution MIC
# Format in all cases: cell-based
# A. laidlawii PG-8 = conditions: Acholeplasma laidlawii, PG8, 48 h; A. laidlawii PG-8; Chanock agar, 37 °C for 2 days, aerobically; calculated for free base; read-out: minimum inhibitory concentrations (MIC)
# M. arginini G-230 = conditions: 48 h; M. arginini G-230; Chanock agar, 37 °C for 2 days, aerobically; calculated for free base; read-out: minimum inhibitory concentrations (MIC)
# M. hyorhinis BST-7 = conditions: Mesomycoplasma hyorhinis, BST7, 48 h; M. hyorhinis BST-7; Chanock agar, 37 °C for 2 days, aerobically; calculated for free base; read-out: minimum inhibitory concentrations (MIC)
# M. fermentans PG-18 = conditions: Mycoplasmopsis fermentans, PG18, 48 h; M. fermentans PG-18; Chanock agar, 37 °C for 2 days, anaerobically; calculated for free base; read-out: minimum inhibitory concentrations (MIC)
# M. hominis PG-21 = conditions: Metamycoplasma hominis, PG21, 48 h; M. hominis PG-21; Chanock agar, 37 °C for 2 days, anaerobically; calculated for free base; read-out: minimum inhibitory concentrations (MIC)
# M. salivarium PG-20 = conditions: 48 h; M. salivarium PG-20; Chanock agar, 37 °C for 2 days, anaerobically; calculated for free base; read-out: minimum inhibitory concentrations (MIC)
# M. pneumoniae Mac = conditions: Mycoplasmoides pneumoniae, 168 h; M. pneumoniae Mac; Chanock agar, 37 °C for 7 days, aerobically; calculated for free base; read-out: minimum inhibitory concentrations (MIC)
# M. orale CH-19299 = conditions: po, 48 h; M. orale CH-19299; Chanock agar, 37 °C for 2 days, anaerobically; calculated for free base; read-out: minimum inhibitory concentrations (MIC)
smiles,measurement,setting,value
"Cc1c(F)c(N2C[C@@H](C)N[C@@H](C)C2)c(F)c2c1c(=O)c(C(=O)O)cn2C1CC1 [Compound 1, 1-cyclopropyl-6,8-difluoro-5-methyl-7-(cis-3,5-demethyl-1-piperazinyl)-1,4-dihydro-4-oxoquinoline-3-carboxylic acid]",MIC,A. laidlawii PG-8,0.05 µg/mL
same,MIC,M. arginini G-230,0.025 µg/mL
same,MIC,M. hyorhinis BST-7,0.025 µg/mL
same,MIC,M. fermentans PG-18,0.025 µg/mL
same,MIC,M. hominis PG-21,0.05 µg/mL
same,MIC,M. salivarium PG-20,0.1 µg/mL
same,MIC,M. pneumoniae Mac,0.05 µg/mL
same,MIC,M. orale CH-19299,0.2 µg/mL
